Measurements: patent publication US12533313B2, “Inhalable liposomal sustained release composition for use in treating pulmonary diseases” (INSPIRMED CORP., priority 2018, dated 2026)
Where “and” joins values, the source holds several entries; their conditions need not be identical. Equal entries are not always repeated.

Legend:
[1] = Lung retention study of liposomal TKI in healthy mice; assay type: in vivo; conditions: IT, 3.74 mg/mL, after two hours
Description: (§1) A lung retention study of liposomal TKI in healthy mice was conducted to compare the residence times of free form versus liposomal TKI formulations in the mouse lung.

[2] = Lung retention of nintedanib in an IPF animal model; assay type: in vivo; conditions: fibrotic mice, once-daily oral dosing of 60 mg/kg
Description: First, pulmonary fibrosis was induced by IT instillation of 2.5 mg/kg bleomycin to each mouse. […] Q2D×2 signifies one dose administered every other day for a total of two doses. Blood and lung tissue samples were collected at predetermined time points (Table 7).

[3] = test system: C57BL/6 mice; experiment: Observations of mice (mortality) during lung retention study; assay type: in vivo; conditions: healthy mice, IT 50 μL, 3.74 mg/mL nintedanib
Description: as §1

[4] = test system: bleomycin-induced pulmonary fibrosis in mice; experiment: Efficacy of liposomal and oral nintedanib in an IPF animal model, histopathological evaluation of lung tissue; assay type: in vivo; conditions: 60 mg/kg, oral, QD ×10, Day 21, listed as free nintedanib
Description: Q2D×4 signifies one dose administered every other day on day 7, 9, 15, and 17. QD×10 signifies mice received once daily dosing on day 7, 8, 9, 10, 11, 14, 15, 16, 17, and 18. Blood and lung tissue samples were collected on day 21.
Efficacy was determined by histopathological evaluation of mouse lung tissue.
Degree of lesions stained with HE was graded from one to five depending on severity: […]

[5] = test system: IPF; conditions: cited from earlier work

In the case of `COC(=O)c1ccc2c(c1)NC(=O)/C2=C(\Nc1ccc(N(C)C(=O)CN2CCN(C)CC2)cc1)c1ccccc1` [nintedanib], the “Drug retained in the lung” value [1] is reported as “almost none of the drug was retained in the lung”, the “Drug retention in mouse lung” value [2] is reported as “no nintedanib was detected in lung tissue after just a few hours” and the “Observation of surviving mice” value [3] is reported as “mice were very weak)”. For the same compound, the Mortality ([3]; deaths/mice) was 2/9 (the 7 surviving, the “Mean score (fibrosis)” value ([4]; per animal (No. 4 to 6)) was ~2 and 2.0 and 1.4 and the “Interstitial and subpleural, multifocal fibrosis scores” value ([4]; single scores per animal (No. 4 to 6)) was 2 (2=slight (1-25%)) (12×) and 1 (1=minimal (<1%)) (3×). The “Undesired side effects of oral treatment” value ([5]; current therapeutic amount) was “diarrhea (most frequent adverse event), nausea, stomach pain, liver problems, vomiting, decreased appetite, headache, weight loss, and high blood pressure” and the “Reduction of lung function decline (increased forced vital capacity) compared to placebo” value ([5]; oral, 150 mg twice a day, clinical trials) was “approximately 50%”.
